Source: US20220249538A1, “TREATMENT AGENT FOR SEX HORMONE-INSENSITIVE GREB1-POSITIVE TUMORS” (OSAKA UNIVERSITY, priority 2019, published 2022)
d = 2'-deoxy (DNA); r = 2'-OH (RNA)

Key:
HepG2 cells [1] = experiment: mRNA (real-time PCR) and protein (lysate probing) expression in HepG2 cells; type: cell-based, human
Experimental: (§1) Using RNAiMAX (Life Technologies/Thermo Fisher Scientific), HepG2 cells, Huh6 cells, Hep3B cells, JHH7 cells, and SKMEL28 cells were each transfected with each siRNA (10 nm). In experiments, the cells were used from 48 to 120 hours after transfection.

GREB1 = GREB1 expression in HepG2 cells after GREB1 siRNA or GREB1 ASO (cell lysates probed with anti-GREB1 antibody); type: cell-based, human; conditions: siRNA 10 nm, lysate probing
Experimental: Phosphorothioated I5-mer antisense oligonucleotides (ASOs) containing AmNA monomers were prepared (synthesized by GeneDesign (Ibaraki, Japan)). In the present specification, “hGREB1-6424-AmNA (15)” is sometimes simply referred to as “ASO-6424” or “GREB1 ASO-6424”. Similar abbreviations are used for describing other ASOs. Using RNAiMAX (Invitrogen, Carlsbad, Calif., USA), HepG2 or COLO679 cells were transfected with 10 nM of ASOs. In experiments, the cells were used from 36 to 48 hours after transfection.
as §1
As reported previously, knockdown of β-catenin decreased HepG2 cell proliferation (see a of FIG. 3). […] Thus, to elucidate the role of GREB1 in HepG2 cells, knockdown of GREB1 was carried out using two different siRNAs.
Next, HepG2 cells were transfected with control ASO or each of the above-described GREB1 ASOs, cultured in a medium containing 10% FBS for 2 days, and the cell lysates were probed with anti-GREB1 antibody and anti-HSP90 antibody.

HepG2 cells [2] = experiment: Cell viability by propidium iodide and Hoechst33342 staining; type: cell-based, human; conditions: medium without Z-VAD, 0.1% FBS, 2 days; PI and Hoechst33342
Experimental: Further, HepG2 cells were transfected with control siRNA or siRNAs (GREB1 #1 siRNA and GREB1 #2 siRNA), cultured in media (caspase inhibitor Z-VAD was contained in one condition, and not contained in the other condition) containing 0.1% FBS for 2 days, stained with propidium iodide (PI, […]) and Hoechst33342 (nucleus), and the cell viability was evaluated.
Further, HepG2 cells transfected with control siRNA, GREB1 siRNA (GREB1 #2 siRNA), p15 siRNA, or siRNA of GREB1 (GREB1 #2 siRNA) and siRNA of p15 in combination were cultured in media (caspase inhibitor Z-VAD was contained in one condition, and not contained in the other condition) containing 0.1% FBS for 2 days, stained with propidium iodide (PI) and Hoechst33342, and the cell viability was calculated.

HepG2 cells [3] = experiment: Cell proliferation assay, two-dimensional culture (plastic dish), Cyquant; type: cell-based, human
Experimental: Cells were seeded on a plate at 1.0×10^4 cells/mL, and, after 12 hours, the medium was replaced with a medium containing 10% serum. While the cell number was counted every 48 hours, the cells were cultured up to 10 days. The measurement of the cell number was performed using Cyquant NF assays (Life Technologies/Thermo Fisher Scientific) according to protocols recommended by the manufacturer.
Mock HepG2 cells (having a vector only, containing no GREB1) or GREB1-transduced HepG2 cells were transfected with control siRNA or two different types of siRNA (GREB1 #1 siRNA and GREB1 #2 siRNA), then two-dimensional culture (plastic dish culture) was performed, and a relative cell number was calculated by Cyquant assay overtime. As a result, in GREB1 knockdown, proliferative capacity of HepG2 cells in two-dimensional culture was reduced. However, when GREB1-transduced HepG2 cells were transfected with siRNAs against GREB1 (GREB1 #1 siRNA/GREB1 and GREB1 #2 siRNA/GREB1), the proliferative capacity of HepG2 cells was not affected (see a of FIG. 4).

liver tumors of BYM mice = experiment: Tumorigenesis by HTVi (hydrodynamic tail vein injection), BYM mice with GREB1 shRNA; type: in vivo
Experimental: In the presence of Greb1 shRNA #3 (SEQ ID NO: 8) (20 μg) or control, and pLIVE-SB13 (8 μg), pT2BH-YAPS127A (20 μg), pT2BH-ΔN90 β-catenin-mutLuc3 (20 μg), pT3-EF1a-cMET (20 μg), and GFP2ALuc were diluted in 2.5 ml of physiological saline, and injected into tail veins of 8- to 9-week old male wild-type C57BL6/N mice within 5 to 7 seconds. Livers of the mice were collected at a predetermined time after injection (or at occurrence of the tumor), and various parameters associated with tumorigenesis were assessed. Specifically, this assessment was performed according to techniques described in Tao, J. et al., (2014). Gastroenterology 147, 690-701 and Tward, A. D. et al, (2007). Proc Natl Acad Sci USA 104, 14771-14776. In this evaluation, ΔN90 β-catenin refers to a β-catenin mutant in which amino acids at positions 1 to 90 of human ft-catenin were deleted, and YAPS127A refers to a YAP mutant in which serine at positon 127 of YAP was substituted by alanine.
Further, ΔN90 β-catenin, YapS127A, and c-Met were administered to mice together with GREB1 shRNA, and the livers were collected 7 to 8 weeks after administration. As a result, in mice transduced with ΔN90 β-catenin, YAPS127A, and c-Met (BYM mice, control), a plurality of nodules were observed on the entire surfaces of the livers (see a of FIG. 14). On the other hand, in mice transduced with GREB1 shRNA together with ΔN90 β-catenin, YAPS127A, and c-Met (BYM GREB1 KD mice), the nodules in the liver were suppressed (see a of FIG. 14).

MCF7 = experiment: mRNA expression in MCF7 cells by real-time PCR; type: cell-based, human
[4] = tested on: mouse fetal liver cells (BMEL); experiment: mRNA expression in BMEL cells by real-time PCR; type: cell-based; conditions: CHIR99021 final concentration 5 μM
Huh6 cells = experiment: mRNA expression in Huh6 cells by real-time PCR; type: cell-based, human; conditions: as in mRNA expression of Axin2
Experimental: Next, the mechanism for regulating expression of GREB1 in hepatoblastoma by YAP and c-Met was investigated. […] However, in Huh6 cells and HepG2 cells, knockdown of YAP/TAZ had no effect on expression of GREB1 (see b of FIG. 13). Further, when Huh6 cells was treated with CHIR99021, or treated with XMU-MP1, which has an inhibitory effect on Mst1/2 kinase and is an activator of YAP, or treated with CHIR99021 and XMU-MP1 in combination, mRNA expression of GREB1 was suppressed as in mRNA expression of Axin2 (see c of FIG. 13).

[5] = tested on: HLE, SNU-387 SNU-449, and Huh7; experiment: mRNA expression in hepatocellular cancer cells after CHIR99021 by real-time PCR; type: cell-based, human; conditions: SNU-387, SNU-449, Huh7, CHIR99021 final concentration 5 μM
[6] = BYM+ GREB1 shRNA mouse vs BYM mouse without knockdown
[7] = tumor nodules of BYM GREB1 KD mice K2 and K4, real-time PCR
[8] = CHIR99021 in the presence or absence of ICI-182,786

GREB1 #1 siRNA: siRNA against human GREB1; sense 5′-GCCAUUCGUGUGCUUCCAUTT-3′ (SEQ ID NO: 4), antisense SEQ ID NO: 5 (antisense AUGGAAGCACACGAAUGGCTT; sugars from the 5' end r19 d2, backbone not given here)
amounts of cleaved caspase 3 and PARP1 (HepG2 cells [1]; HepG2 cells, 0.1% FBS for 2 days, lysate probing): increased
expressions of β-catenin and Axin2 (HepG2 cells [1]; HepG2 cells, GREB1 knockdown, lysate probing): no effect
expression of cell cycle regulators cyclinA, cyclinB, phosphorylated histone H3 (HepG2 cells [1]; HepG2 cells, medium containing 1% FBS for 1 day, lysate probing): decreases
knockdown of GREB1 (anti-GREB1 antibody) (GREB1): knocked down
cell death of HepG2 cells (HepG2 cells [2]): elevated cell death
proliferative capacity of HepG2 cells in two-dimensional culture (HepG2 cells [3]; GREB1-transduced HepG2 cells): not affected
proliferative capacity of HepG2 cells in two-dimensional culture (HepG2 cells [3]; mock HepG2 cells, relative cell number by Cyquant over time): reduced

GREB1 shRNA: shRNA against mouse Greb1, encoding DNA SEQ ID NO: 8, given as pT2BH-GFP2ALuc plasmid by hydrodynamic injection (DNA CCGGCTACTTTGTTAGCAATGATATCTCGAGATATCATTGCTAACAAAGTAGTTTTTTG)
incidence rate of tumorigenesis (liver tumors of BYM mice; BYM GREB1 KD mice K1 to K6): decreased
mice in which any tumor was not observed (liver tumors of BYM mice; BYM GREB1 KD mice K1 to K6): 4 out of the 6
nodules in the liver (liver tumors of BYM mice; BYM mice, livers collected 7 to 8 weeks after administration, shRNA plasmid 20 μg HTVi): suppressed
serum AFP level (liver tumors of BYM mice; [6]): dramatically decreased
weight of the liver (liver tumors of BYM mice; [6]): dramatically decreased
GREB1 mRNA expression levels in tumors (liver tumors of BYM mice; [7]): low
expression levels of DLK1 and TACSTD1 in tumors (liver tumors of BYM mice; [7]): the same as those of the GREB1 low group of BYM mice

C[C@]12CC[C@@H]3c4ccc(O)cc4C[C@@H](CCCCCCCCC[S+]([O-])CCCC(F)(F)C(F)(F)F)[C@H]3[C@@H]1CC[C@@H]2O (stereo partly drawn) [ICI-182,786]
expression level of GREB1 mRNA (HepG2 cells [1]; HepG2 cells treated for 48 hours, real-time PCR): not affected
expression of GREB1 (MCF7; ICI-182,786 treatment, real-time PCR): dramatically decreased
mRNA expression of PAI-1 (MCF7; estrogen receptor antagonist treatment): suppresses

Cc1c[nH]c(-c2cnc(NCCNc3ccc(C#N)cn3)nc2-c2ccc(Cl)cc2Cl)n1 [CHIR99021]
expression of GREB1 [4]: increased
mRNA expression of GREB1 (Huh6 cells): suppressed
expression of Axin2 (MCF7; [8]): increased
expression of GREB1 (MCF7; [8]): not increased
expression of Axin2 [5]: increased
expression of GREB1 [5]: not increased

CN1C(=O)c2sccc2N(C)c2nc(Nc3ccc(S(N)(=O)=O)cc3)ncc21 [XMU-MP1]
mRNA expression of GREB1 (Huh6 cells): suppressed
